For this test, the target named is T1, rat MCH1 receptor (Rattus norvegicus, UniProt P97639).
T1 construct: operatively linked to DNA encoding the rat MCH1 receptor so as to permit expression thereof; expressed in transfected cells; host or cells: Human embryonic kidney Peak rapid 293 (Peakr293) cells, transient calcium phosphate transfection, membranes
T1 sequence (P97639 whole entry): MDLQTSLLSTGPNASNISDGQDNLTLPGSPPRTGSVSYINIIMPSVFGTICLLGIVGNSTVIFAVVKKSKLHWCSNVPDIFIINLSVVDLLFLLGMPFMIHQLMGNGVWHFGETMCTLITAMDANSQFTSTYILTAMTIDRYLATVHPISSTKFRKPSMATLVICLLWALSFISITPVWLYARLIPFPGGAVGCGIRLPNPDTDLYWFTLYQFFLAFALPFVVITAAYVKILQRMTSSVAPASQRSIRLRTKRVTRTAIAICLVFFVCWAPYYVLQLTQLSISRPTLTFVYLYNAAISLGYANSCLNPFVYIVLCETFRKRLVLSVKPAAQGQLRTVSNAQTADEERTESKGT
Description: Radioligand binding assay at cloned rat MCH1 receptor ([3H]Compound A). To be noted: cloned rat MCH1, Peakr293 cell membranes, 0.08 nM [3H]Compound A, 25° C., 90 minutes; read-out: Ki(MCH-1).
What is called Ki is the equilibrium dissociation constant of an inhibitor or competing ligand from its target. As to `CC(C)C(=O)Nc1cccc(C2CCN(CCCNC(=O)C(c3ccc(Cl)cc3)c3ccc(Cl)cc3)CC2)c1` [Example 2, N-{3-[1-(3-{[BIS(4-CHLOROPHENYL)ACETYL]AMINO}PROPYL)-4-PIPERIDINYL] PHENYL}-2-METHYLPROPANAMIDE], the Ki is 2.4 nM.
To `CCCC(=O)Nc1cccc(C2CCN(CCCNC(=O)C(c3ccccc3)c3ccccc3)CC2)c1` [Example 5] belongs 3.1 nM.
As to `CCC(=O)Nc1cccc(C2CCN(CCCNC(=O)C(C)(C)c3ccc(Cl)cc3)CC2)c1` [Example 7], the inhibition constant Ki turned out to be 7.9 nM.
To `CC(C)C(=O)Nc1cccc(C2CCN(CCCNC(=O)C(Br)c3ccccc3)CC2)c1` (centres unmarked) [Example 9, N-{3-[1-(3-{[BROMO(PHENYL)ACETYL]AMINO}PROPYL)-4-PIPERIDINYL] PHENYL}-2-METHYLPROPANAMIDE] belongs 71.6 nM; to `CCC(=O)Nc1cccc(C2CCN(CCCNC(=O)C(Br)c3ccccc3)CC2)c1` (centres unmarked) [Example 10, N-[3-(1-{3-[(2-BROMO-2-PHENYLACETYL)AMINO]PROPYL}-4-PIPERIDINYL) PHENYL]PROPANAMIDE], 83 nM.
As for `CCCCCC(C(=O)NCCCN1CCC(c2cccc(NC(=O)C(C)C)c2)CC1)(c1ccccc1)c1ccccc1` [Example 11], the Ki is 8.4 nM.
As to `CCC(C(=O)NCCCN1CCC(c2cccc(NC(=O)C(C)C)c2)CC1)(c1ccccc1)c1ccccc1` [Example 12], the Ki was 13.9 nM.
On to `CC(C)CC(=O)Nc1cccc(C2CCN(CCCNC(=O)C(c3ccccc3)c3ccccc3)CC2)c1` [Example 13], for which the Ki turned out to be 11.8 nM.
Regarding `CCC(=O)Nc1cccc(C2CCN(CCCNC(=O)C(c3ccccc3)c3c(C)cc(C)cc3C)CC2)c1` (centres unmarked) [Example 14, N-[3-(1-{3-[(2-MESITYL-2-PHENYLACETYL)AMINO]PROPYL}-4-PIPERIDINYL)PHENYL] PROPANAMIDE], the Ki worked out at 2.7 nM.
To `CCC(=O)Nc1cccc(C2CCN(CCCNC(=O)C(CC)(c3ccccc3)c3ccccc3)CC2)c1` [Example 15, 2,2-DIPHENYL-N-(3-{4-[3-(PROPIONYLAMINO)PHENYL]-1-PIPERIDINYL}PROPYL) BUTANAMIDE] belongs 8.9 nM.
With `CCSC(C(=O)NCCCN1CCC(c2cccc(NC(=O)C(C)C)c2)CC1)(c1ccccc1)c1ccccc1` [Example 16, N-{3-[1-(3{[(ETHYLSULFANYL)(DIPHENYL)ACETYL]AMINO}PROPYL)-4-PIPERIDINYL] PHENYL}-2-METHYLPROPANAMIDE] the figure was 1040 nM; with `O=C(Nc1cccc(C2CCN(CCCNC(=O)C(c3ccccc3)c3ccccc3)CC2)c1)C1CC1` [Example 17], 1.8 nM.
Take `CC(C)(C)C(=O)Nc1cccc(C2CCN(CCCNC(=O)C(c3ccccc3)c3ccccc3)CC2)c1` [Example 18]: the Ki was 31.5 nM.
With `CC(C)(C)CC(=O)Nc1cccc(C2CCN(CCCNC(=O)C(c3ccccc3)c3ccccc3)CC2)c1` [Example 19] the figure was 23.4 nM; with `COc1ccc(NC(=O)C(C)C)cc1C1CCN(CCCNC(=O)C(c2ccccc2)c2ccccc2)CC1` [Example 20], 90.5 nM.
With `CCC(=O)Nc1cccc(C2CCN(CCCNC(=O)C(c3ccc(F)cc3)c3ccc(F)cc3)CC2)c1` [Example 21, N-{3-[1-(3-{[2,2-BIS(4-FLUOROPHENYL)ACETYL]AMINO}PROPYL)-4-PIPERIDINYL] PHENYL}PROPANAMIDE] the figure was 0.7 nM; with `CCCC(=O)Nc1ccc(OC)c(C2CCN(CCCNC(=O)C(c3ccccc3)c3ccccc3)CC2)c1` [Example 22], 136 nM.
`COc1ccc(NC(=O)C(C)C)cc1C1CCN(CCCNC(=O)C(c2ccc(F)cc2)c2ccc(F)cc2)CC1` [Example 23]: the Ki worked out at 13.1 nM.
To `CCCC(=O)Nc1ccc(F)c(C2CCN(CCCNC(=O)C(c3ccccc3)c3ccccc3)CC2)c1` [Example 25] belongs 2.1 nM; to `CCCC(=O)Nc1ccc(OC)c(C2CCN(CCCNC(=O)C(c3ccc(F)cc3)c3ccc(F)cc3)CC2)c1` [Example 26], 18.7 nM.

These data come from patent US20060217418A1, “Substituted alkyl amido piperidines” (priority 2001, published 2006).
